Assays:
[1] = Aqueous solubility (24 hour equilibrated suspension in water, HPLC); type: physicochemical; settings: for pH measured at saturation: saturated aqueous solution
Description: The aliquot was diluted and analyzed by HPLC (Waters). The data was compared to a standard curve generated from a set of solutions of known concentrations. The standard curve and the samples were analyzed using a HPLC using the following conditions: • Column: Symmetry C-18, 5 um, 15 cm×3.9 mm (Waters) • Mobile Phase: 0.05 M KH2PO4—0.01M Hexanesulfonic Acid/THF (1000:125) (Apparent pH 5.0) • Column Temp: 20-30° C. • Flow Rate: 1.0 mL/min • Wavelength: 305 nm • Run Time: 15 min (zopiclone retention time is 9.5-10 min)

[2] = Intrinsic dissolution, USP 28 method <1087>; type: physicochemical; settings: isotonic 50 mM acetate (pH 4.5) buffer at 37° C., 50 rpm; for Intrinsic dissolution Average: average of Run 1 and Run 2
Description: The intrinsic dissolution (Table 3) was determined using USP 28 method <1087> (United States Pharmacopeia, The National Formulary, USP 28, 28th edition, Rockville, […]., 2005). Preparation of each test sample was performed as per USP 28 method <1087> by weighing and transferring the material to the die cavity and compressing for 1 minute at the minimum compression pressure necessary to form a nondisintegrating compacted pellet. The dissolution media used was isotonic 50 mM acetate buffer (pH 4.5) at 37° C. and speed was set at 50 rpm. Each run was halted at 5 min, irrespective of the percent dissolved. Each salt was run in duplicate.

[3] = water, equilibrated 24 hour at ambient

| SMILES | pH measured at saturation [1] | Solubility [1, 3] | Intrinsic dissolution Run 1 [2] [mgA/cm^2/min] | Intrinsic dissolution Run 2 [2] [mgA/cm^2/min] | Intrinsic dissolution Average [2] [mgA/cm^2/min] | solubility thermodynamic at 24 h [1, 3] [mg/mL] |
| --- | --- | --- | --- | --- | --- | --- |
| CN1CCN(C(=O)O[C@H]2c3nccnc3C(=O)N2c2ccc(Cl)cn2)CC1 [Free base, (S)-(6-(5-chloro-2-pyridyl)-5-[(4-methyl-1-piperazinyl)carbonyloxy]-7-oxo-6,7-dihydro-5H-pyrrolo[3,4-b]pyrazine)] | 7.6 | 0.2^1 mgA/mL | 0.6 | 0.5 | 0.5 |  |
| CN1CCN(C(=O)O[C@H]2c3nccnc3C(=O)N2c2ccc(Cl)cn2)CC1.O=S(=O)(O)c1ccccc1 [Besylate, (S)-Zopiclone Besylate] | 4.4 |  | 3.3 | 2.6 | 2.9 | 34 |

Source: patent US8497267B2, “Method for treating a sleep disorder with a dosage form of besylate salts of zopiclone or eszopiclone” (Sunovion Pharmaceuticals Inc., priority 2007, dated 2013)
